The source of these data is ChEMBL document CHEMBL1782038, “Heterocyclic replacement of the central phenyl core of diamine-based histamine H3 receptor antagonists” (Eur J Med Chem, 2009).

By CL/F is commonly meant the apparent clearance, not corrected for the fraction that reaches the circulation. The term bioavailability denotes the share of a dose that reaches the circulation, judged against a reference dose that is usually intravenous. Usually half-life stands for the time needed for the level to fall by half in the phase considered. A lower half-life goes with rapid decline. For orientation: clearance means the volume of plasma or blood freed of the substance per unit of time. Low readings indicate a low capacity for elimination, high ones a high capacity for elimination. Usually Tmax stands for the time at which the peak concentration occurs. By Vd is commonly meant the apparent volume that relates the amount in the body to the concentration in plasma or blood. Low values mean little distribution into tissue, high ones wide distribution into tissue.

A short description of data set [1]: in vivo. The settings on record: Sprague-Dawley, rat, po, 10 mg/kg.
The nature of data set [2]: in vivo. The settings on record: Sprague-Dawley, rat, po, 10 mg/kg. This is another data set of the same source.
A short description of data set [3]: in vivo. The settings on record: Sprague-Dawley, rat, po, 10 mg/kg. The source holds these as a separate data set.
Data set [4] can be described thus: in vivo. The settings on record: Sprague-Dawley, rat, iv, 1 mg/kg.
Data set [5] can be described thus: in vivo. The settings on record: Sprague-Dawley, rat, po, 10 mg/kg. This is another data set of the same source.
Another data set is filed under the species Rattus norvegicus. The settings on record: in vivo, po, 10 mg/kg.
Data set [6] in a line: in vivo. The settings on record: Sprague-Dawley, rat, iv, 1 mg/kg. This is another data set of the same source.
Data set [7] can be described thus: in vivo. The settings on record: Sprague-Dawley, rat, iv, 1 mg/kg. The source holds these as a separate data set.

Compound `CC(C)N1CCN(C(=O)c2ccc(CN3CCCCC3)cc2)CC1` had a CL/F in the data set “in vivo [1]” of 18.3 mL/min. The same compound yielded a bioavailability in the data set “in vivo [2]” of 54%. For the same compound, the half-life in “in vivo [3]” was 33.6 h; in the data set “in vivo [7]”, 13.8 h. Moreover, in the data set “in vivo [4]”, the clearance was 9.67 mL/min. The Tmax in the data set “in vivo [5]” is 1.7 h. This compound also came in with a Vz in the data set filed under Rattus norvegicus of 41.1 L. Further, the Vd in “in vivo [6]” was 10.6 L.
